# Reference: US5529989A (Arizona Board of Regents acting on behalf of Arizona State …, priority 1995, dated 1996)
# Entries after “also recorded” stand apart in the source; their conditions may differ.
# How the values were obtained:
# [1] = stability of the phosphoric acid; format: physicochemical; conditions: isolated after hydrogenolysis
# water solubility = format: physicochemical
# [2] = tested on: murine P388 lymphocytic leukemia cell line; assay: growth inhibition of murine P388 lymphocytic leukemia cell line in vitro; format: cell-based
# Procedure: (§1) There is no mathematical difference between ED50 and GI50, which are both calculated using the same formula. The only difference is historical usage.
# (§2) Each drug is tested at five (5) doses: 100--10--1--0.1--0.01 μg/ml. Percent Growths are calculated for each dose. […] The log of the dose is used during the regression computation.
# (§3) At the start of an experiment, cells from the in vitro cell cultures are inoculated into the appropriate tubes or microtiter plates. One set of control tubes/plates is immediately counted to determine the number of cells at the start of the experiment. This is the "baseline count" or "Tzero reading". At the end of the experiment (48 hours later) a second set of control tubes/plates is analyzed to determine the "Control Growth" value. The growth (or death) of cells relative to the initial quantity of cells is used to define the "Percent of Growth".
# [3] = tested on: U.S. National Cancer Institute's (NCI) panel of sixty human cancer cell lines; assay: cancer cell growth inhibition, NCI panel of sixty human cancer cell lines; format: cell-based
# Procedure: as §1
# Total Growth Inhibition ("TGI"), is the drug dose needed to yield zero percent growth, i.e., just as many cells at the end of the experiment as were present in the beginning. Whether just as many cells were killed as were produced (steady state), or no growth occurred (total inhibition), cannot be distinguished.
# as §2, §3
# cancer cell = cancer cell growth inhibitory comparison of pancratistatin with its phosphate prodrug; format: cell-based; conditions: versus pancratistatin (1)
# Procedure: as §1, §2, §3
# [4] = tested on: murine P388 lymphocytic leukemia cell line; conditions: from U.S. Pat. No. 4,985,436, cited from earlier work
# [5] = tested on: murine P388 lymphocytic leukemia; conditions: 0.75-12.5 mg/kg host body weight, from U.S. Pat. No. 4,985,436; cited from earlier work
# [6] = tested on: M5074 murine ovary sarcoma; conditions: 0.38 to 3.0 mg active reagent/kg host body weight; from U.S. Pat. No. 4,985,436; cited from earlier work
# [7] = tested on: M5074 murine ovary sarcoma; conditions: 6 mg/kg host body weight; from U.S. Pat. No. 4,985,436; cited from earlier work
# [8] = tested on: experimental melanoma and ovary carcinoma; conditions: cited from earlier work
# RNA viruses = conditions: cited from earlier work
# [9] = cited from earlier work
Compound,stability [1],solubility (water solubility),"GI50 ([2]; Mus musculus, 48 h, murine P388 lymphocytic leukemia cell line, dose needed to reduce the percent growth to 50%, read-out: ED50 (the source's name))","ED50 compared with pancratistatin (1) ([2]; murine P388 lymphocytic leukemia, versus pancratistatin (1))",direct comparison of phosphate (5) and pancratistatin (1) [3],cancer cell growth inhibition compared with pancratistatin (1) (cancer cell),"ED50 ([4]; P388 in vitro cell line, 2880 min)",inhibition of growth of P388 in vitro cell line (in words) [4],life extension [5],life extension [6],cure rate [7],activity against experimental melanoma and ovary carcinoma [8],activity against a range of RNA viruses (RNA viruses),solubility in water (in words) [9]
"CC(=O)O[C@@H]1[C@@H](OC(C)=O)[C@H](OC(C)=O)[C@@H]2c3cc4c(c(OP(=O)(O)O)c3C(=O)N[C@H]2[C@@H]1OC(C)=O)OCO4 [4b, 7-phosphoryl-pancratistatin tetraacetate]",unstable,,,,,,,,,,,,,
"O=C1N[C@H]2[C@H](O)[C@H](O)[C@@H](O)[C@H](O)[C@@H]2c2cc3c(c(OP(=O)(O)O)c21)OCO3 [compound (5), Disodium 7-Phosphoryl-Pancratistatin]",,> 230 mg/mL,0.032 µg/mL,essentially comparable to that found for pancratistatin (1),comparable results for both compounds,same cancer cell growth inhibition as pancratistatin (1); also recorded: very comparable results,,,,,,,,
O=C1N[C@H]2[C@H](O)[C@H](O)[C@@H](O)[C@H](O)[C@@H]2c2cc3c(c(O)c21)OCO3 [pancratistatin],,,,,comparable results for both compounds,,0.001 µg/mL,markedly inhibited growth,38-106%,53% to 84,50%,potent activity,activity against a range of RNA viruses,at best sparingly soluble in water
